Measured values taken from ChEMBL document CHEMBL5236572, “Bioactive Aurones, Indanones, and Other Hemiindigoid Scaffolds: Medicinal Chemistry and Photopharmacology Perspectives” (J Med Chem, 2022).
pEC50, pIC50, pKi: −log10 of the molar value. Values after ≈ are worked out from the molar mass of the structure shown. Values belong to the molecule of their own block, whether it stands above or below them.

Assays:
Histone deacetylase 4 = Histone deacetylase 4 (Homo sapiens, UniProt P56524); assay: Inhibition of human HDAC4 in HeLa cells extract incubated for 5 mins followed by substrate addition and measured after 15 mins using Fluor-de-Lys as substrate by spectrofluorometric analysis; assay type: cell-free
HT-22 [1] = assay: Neuroprotective activity against glutamate induced-neurotoxicity in mouse HT-22 cells assessed as cell viability preincubated for 4 hrs followed by glutamate stimulation and measured after 12 hrs by MTT assay; assay type: functional, cell-based
Histone deacetylase 2 = Histone deacetylase 2 (Homo sapiens, UniProt Q92769); assay: Inhibition of human HDAC2 in HeLa cells extract incubated for 5 mins followed by substrate addition and measured after 15 mins using Fluor-de-Lys as substrate by spectrofluorometric analysis; assay type: cell-free
HT-22 [2] = assay: Neuroprotective activity against glutamate induced-neurotoxicity in mouse HT-22 cells assessed as cell viability at 40 uM preincubated for 4 hrs followed by glutamate stimulation and measured after 12 hrs by MTT assay; assay type: functional; conditions: time 16 hrs, read-out: Activity
Histone deacetylase 7 = Histone deacetylase 7 (Homo sapiens, UniProt Q8WUI4); assay: Inhibition of human HDAC7 in HeLa cells extract incubated for 5 mins followed by substrate addition and measured after 15 mins using Fluor-de-Lys as substrate by spectrofluorometric analysis; assay type: cell-free
[3] = Inhibition of synthetic AcPHF6 peptide aggregation measured upto 120 mins at 1 min interval by ThT-based fluorometric assay
Histone deacetylase 8 = Histone deacetylase 8 (Homo sapiens, UniProt Q9BY41); assay: Inhibition of human HDAC8 in HeLa cells extract incubated for 5 mins followed by substrate addition and measured after 15 mins using Fluor-de-Lys as substrate by spectrofluorometric analysis; assay type: cell-free
Leishmania major [4] = assay: Antileishmanial activity against promastigote stage Leishmania major MHOM/JL/80/Friedlin overexpressing ABCI4 infected in human THP-1 cells assessed as reduction in parasite growth incubated for 72 hrs by MTT assay; assay type: functional, organism-based; conditions: THP-1, 72 h
Leishmania major [5] = assay: Antileishmanial activity against promastigote stage Leishmania major MHOM/JL/80/Friedlin overexpressing ABCI4 infected in human THP-1 cells assessed as fold change in reduction in parasite growth incubated for 72 hrs in presence of SbIII by MTT assay; assay type: functional
THP-1 = assay: Cytotoxicity against human THP-1 cells assessed as reduction in cell viability incubated for 72 hrs by MTT assay; assay type: functional, cell-based; conditions: THP-1, 72 h
[6] = Selectivity index, ratio of IC50 for cytotoxicity against PMA differentiated human THP-1 cells to IC50 for antileishmanial activity against luciferase expressing axenic amastigote stage of Leishmania infantum MOM/MA671/TMAP263 infected in PMA differentiated human THP-1 macrophage cells; assay type: toxicity, cell-based; conditions: PMA-differentiated THP-1 cells, read-out: Ratio IC50
Leishmania infantum = assay: Antileishmanial activity against luciferase expressing […] amastigote stage of Leishmania infantum MOM/MA671/TMAP263 infected in PMA differentiated human THP-1 macrophage cells assessed as reduction in parasite growth incubated for 72 hrs by luminescence analysis; assay type: functional, organism-based; conditions: MOM/MA671/TMAP263, THP-1, 72 h
PC-3 = assay: Antiproliferative activity against doxorubicin resistant human PC-3 cells assessed as inhibition of cell proliferation by Beckman Coulter analysis; assay type: functional, cell-based
[7] = Inhibition of equine serum BuChE using butyrylthiocholine iodide as substrate preincubated for 15 mins followed by substrate addition and measured after 2 mins by DTNB reagent based Ellman's method
Casein kinase 2 = Casein kinase 2 (Homo sapiens, UniProt P67870+P68400+P19784+Q8NEV1); assay: Inhibition of recombinant human CK2 using RRRDDDSDDD as substrate in presence of [gamma-33P-ATP] incubated for 20 mins by beta-counter analysis; assay type: protein assay
Pseudomonas aeruginosa = assay: Antimicrobial activity against Pseudomonas aeruginosa MTCC 1688 assessed as bacterial growth inhibition by broth microdilution method; assay type: functional
U-251 = assay: Antiproliferative activity against doxorubicin resistant human U-251 cells assessed as inhibition of cell viability incubated for 48 hrs by sulforhodamine B assay; assay type: functional, cell-based; conditions: U-251, 48 h
Acetylcholinesterase [8] = target: Acetylcholinesterase (Homo sapiens, UniProt P22303); assay: Inhibition of human AchE by Ellman's method
[9] = target: T1, Amine oxidase [flavin-containing] A (Homo sapiens, UniProt P21397); assay: Inhibition of recombinant human MAO-A using p-tyramine as substrate by Amplex-Red MAO assay
T1 sequence (P21397 whole entry): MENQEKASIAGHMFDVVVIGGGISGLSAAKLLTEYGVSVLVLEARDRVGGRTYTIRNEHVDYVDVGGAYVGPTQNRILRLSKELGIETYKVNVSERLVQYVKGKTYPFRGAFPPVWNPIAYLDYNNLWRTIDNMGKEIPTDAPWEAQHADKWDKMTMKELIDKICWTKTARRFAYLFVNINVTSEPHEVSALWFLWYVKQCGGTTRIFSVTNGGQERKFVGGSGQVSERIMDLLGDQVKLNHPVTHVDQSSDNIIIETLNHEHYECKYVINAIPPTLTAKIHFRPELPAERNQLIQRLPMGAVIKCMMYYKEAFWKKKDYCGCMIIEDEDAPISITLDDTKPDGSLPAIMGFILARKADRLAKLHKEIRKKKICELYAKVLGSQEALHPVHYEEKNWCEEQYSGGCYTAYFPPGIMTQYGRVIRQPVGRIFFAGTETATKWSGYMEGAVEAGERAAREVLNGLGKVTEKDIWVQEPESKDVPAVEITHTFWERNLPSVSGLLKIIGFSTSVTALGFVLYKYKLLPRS

[10] = target: T2, Amine oxidase [flavin-containing] B (Homo sapiens, UniProt P27338); assay: Inhibition of recombinant human MAO-B using p-tyramine as substrate by Amplex-Red MAO assay
T2 sequence (P27338 whole entry): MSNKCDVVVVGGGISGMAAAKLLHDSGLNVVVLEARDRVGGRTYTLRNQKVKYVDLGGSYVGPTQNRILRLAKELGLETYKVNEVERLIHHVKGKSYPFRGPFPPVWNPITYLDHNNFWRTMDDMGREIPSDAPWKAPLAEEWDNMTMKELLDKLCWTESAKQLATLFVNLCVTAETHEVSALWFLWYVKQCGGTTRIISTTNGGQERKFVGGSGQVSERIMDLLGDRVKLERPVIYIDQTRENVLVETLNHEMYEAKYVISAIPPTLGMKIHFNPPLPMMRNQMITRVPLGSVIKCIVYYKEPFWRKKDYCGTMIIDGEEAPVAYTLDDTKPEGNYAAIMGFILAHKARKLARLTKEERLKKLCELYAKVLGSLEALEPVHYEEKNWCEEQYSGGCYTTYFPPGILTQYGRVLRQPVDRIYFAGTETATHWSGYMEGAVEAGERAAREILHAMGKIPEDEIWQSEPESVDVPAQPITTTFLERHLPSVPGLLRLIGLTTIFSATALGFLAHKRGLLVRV

Bacillus subtilis = assay: Antimicrobial activity against Bacillus subtilis MTCC 121 assessed as bacterial growth inhibition incubated for 24 hrs by well diffusion method; assay type: functional
Aspergillus flavus = assay: Antifungal activity against Aspergillus flavus NRRL-3357 assessed as reduction in fungal growth by well diffusion method; assay type: functional
Staphylococcus aureus = assay: Antimicrobial activity against Staphylococcus aureus MTCC96 assessed as bacterial growth inhibition incubated for 24 hrs by well diffusion method; assay type: functional
Proteus vulgaris = assay: Antimicrobial activity against Proteus vulgaris assessed as bacterial growth inhibition incubated for 24 hrs by well diffusion method; assay type: functional
Escherichia coli = assay: Antimicrobial activity against Escherichia coli MTCC43 assessed as bacterial growth inhibition incubated for 24 hrs by well diffusion method; assay type: functional
Candida albicans = assay: Antifungal activity against Candida albicans assessed as reduction in fungal growth by well diffusion method; assay type: functional
Acetylcholinesterase [11] = target: Acetylcholinesterase (Electrophorus electricus, UniProt O42275); assay: Inhibition of electric eel AChE using acetylthiocholine iodide as substrate preincubated for 5 mins followed by substrate addition by spectrophotometric Ellman's method
[12] = Selectivity index, ratio of IC50 for inhibition of electric eel AChE to IC50 for inhibition of equine serum BuChE
[13] = Inhibition of equine serum BuChE using butyrylthiocholine iodide as substrate preincubated for 5 mins followed by substrate addition by spectrophotometric Ellman's method
Toxoplasma gondii = assay: Antiparasitic activity against Toxoplasma gondii RH type 1 infected in human HFF cells assessed as inhibition of parasite proliferation incubated for 30 hrs by Hoechst-33342, YFP2 and Alexa-488 dye based high content imaging analysis; assay type: functional, organism-based; conditions: RH type 1, HFF

Sequence of Histone deacetylase 4 (P56524 whole entry): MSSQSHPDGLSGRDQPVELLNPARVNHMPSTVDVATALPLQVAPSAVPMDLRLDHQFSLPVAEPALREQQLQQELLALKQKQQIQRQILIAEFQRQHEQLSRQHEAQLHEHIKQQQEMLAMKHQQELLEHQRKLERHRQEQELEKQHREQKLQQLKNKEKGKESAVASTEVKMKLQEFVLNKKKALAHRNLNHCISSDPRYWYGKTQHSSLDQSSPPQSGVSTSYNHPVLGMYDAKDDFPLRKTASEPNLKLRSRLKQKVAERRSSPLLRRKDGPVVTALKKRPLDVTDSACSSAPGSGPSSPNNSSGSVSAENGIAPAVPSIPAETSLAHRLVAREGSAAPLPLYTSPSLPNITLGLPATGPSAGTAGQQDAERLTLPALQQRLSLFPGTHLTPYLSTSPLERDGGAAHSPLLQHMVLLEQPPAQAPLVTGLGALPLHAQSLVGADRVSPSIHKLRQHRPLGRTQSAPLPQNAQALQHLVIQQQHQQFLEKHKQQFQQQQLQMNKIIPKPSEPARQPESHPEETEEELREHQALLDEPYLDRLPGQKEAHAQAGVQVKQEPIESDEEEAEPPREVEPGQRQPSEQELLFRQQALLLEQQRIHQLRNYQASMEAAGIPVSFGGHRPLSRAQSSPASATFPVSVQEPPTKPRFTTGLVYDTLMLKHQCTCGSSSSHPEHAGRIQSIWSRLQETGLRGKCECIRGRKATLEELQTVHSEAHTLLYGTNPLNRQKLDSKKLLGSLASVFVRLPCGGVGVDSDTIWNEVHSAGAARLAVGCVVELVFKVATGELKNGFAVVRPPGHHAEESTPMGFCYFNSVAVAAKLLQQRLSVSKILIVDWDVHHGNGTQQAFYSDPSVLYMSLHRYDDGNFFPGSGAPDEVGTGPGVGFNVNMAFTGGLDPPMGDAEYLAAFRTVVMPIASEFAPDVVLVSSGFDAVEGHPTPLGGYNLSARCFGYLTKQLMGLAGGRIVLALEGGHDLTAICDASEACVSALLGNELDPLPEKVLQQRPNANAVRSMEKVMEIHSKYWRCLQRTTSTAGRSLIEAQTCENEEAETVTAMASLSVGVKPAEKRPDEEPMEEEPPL
Sequence of Histone deacetylase 8 (Q9BY41 whole entry): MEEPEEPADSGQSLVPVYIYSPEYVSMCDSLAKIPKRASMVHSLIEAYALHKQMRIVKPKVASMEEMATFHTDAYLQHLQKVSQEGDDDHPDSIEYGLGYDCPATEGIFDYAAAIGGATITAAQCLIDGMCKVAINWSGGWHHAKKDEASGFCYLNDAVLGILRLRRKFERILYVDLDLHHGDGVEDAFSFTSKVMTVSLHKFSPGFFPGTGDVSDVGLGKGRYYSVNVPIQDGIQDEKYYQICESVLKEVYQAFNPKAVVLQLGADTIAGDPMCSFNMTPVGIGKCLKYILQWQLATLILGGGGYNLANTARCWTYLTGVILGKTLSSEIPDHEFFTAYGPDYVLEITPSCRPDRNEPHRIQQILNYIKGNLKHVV
Sequence of Acetylcholinesterase (Homo sapiens, UniProt P22303) (P22303 whole entry): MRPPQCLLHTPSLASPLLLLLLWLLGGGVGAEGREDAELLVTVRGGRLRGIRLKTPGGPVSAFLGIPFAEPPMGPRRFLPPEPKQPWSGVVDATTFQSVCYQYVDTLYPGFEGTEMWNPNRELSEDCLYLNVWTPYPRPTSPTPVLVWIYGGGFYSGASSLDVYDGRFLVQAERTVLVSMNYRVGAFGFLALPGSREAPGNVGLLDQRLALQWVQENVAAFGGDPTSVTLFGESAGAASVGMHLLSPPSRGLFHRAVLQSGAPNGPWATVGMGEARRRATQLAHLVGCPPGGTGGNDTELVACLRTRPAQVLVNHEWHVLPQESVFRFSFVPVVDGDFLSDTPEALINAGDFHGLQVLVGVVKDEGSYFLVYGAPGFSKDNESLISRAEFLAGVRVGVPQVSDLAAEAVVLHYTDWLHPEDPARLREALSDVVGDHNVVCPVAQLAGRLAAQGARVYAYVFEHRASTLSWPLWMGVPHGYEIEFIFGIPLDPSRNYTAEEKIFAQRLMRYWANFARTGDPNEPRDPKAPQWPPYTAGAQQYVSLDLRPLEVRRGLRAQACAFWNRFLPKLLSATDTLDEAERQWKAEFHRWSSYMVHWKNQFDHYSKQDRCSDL
Sequence of Acetylcholinesterase (Electrophorus electricus, UniProt O42275) (O42275 whole entry): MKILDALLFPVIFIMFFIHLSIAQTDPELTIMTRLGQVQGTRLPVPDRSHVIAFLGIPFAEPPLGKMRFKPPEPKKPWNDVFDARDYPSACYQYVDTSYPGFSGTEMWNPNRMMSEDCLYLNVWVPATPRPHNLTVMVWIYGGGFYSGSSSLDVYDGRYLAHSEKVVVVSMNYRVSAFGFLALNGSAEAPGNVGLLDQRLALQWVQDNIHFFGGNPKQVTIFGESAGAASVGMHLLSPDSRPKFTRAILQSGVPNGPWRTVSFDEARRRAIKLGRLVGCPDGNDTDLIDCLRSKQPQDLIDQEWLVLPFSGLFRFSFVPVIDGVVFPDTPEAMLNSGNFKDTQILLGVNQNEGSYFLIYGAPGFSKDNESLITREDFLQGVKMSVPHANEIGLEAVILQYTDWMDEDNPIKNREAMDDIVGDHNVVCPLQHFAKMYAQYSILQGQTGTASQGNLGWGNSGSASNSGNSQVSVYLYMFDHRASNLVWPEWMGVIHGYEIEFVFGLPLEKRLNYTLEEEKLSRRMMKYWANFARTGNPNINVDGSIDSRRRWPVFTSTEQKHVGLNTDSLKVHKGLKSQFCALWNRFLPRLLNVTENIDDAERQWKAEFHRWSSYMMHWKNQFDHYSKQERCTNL
Sequence of Histone deacetylase 7 (Q8WUI4 whole entry): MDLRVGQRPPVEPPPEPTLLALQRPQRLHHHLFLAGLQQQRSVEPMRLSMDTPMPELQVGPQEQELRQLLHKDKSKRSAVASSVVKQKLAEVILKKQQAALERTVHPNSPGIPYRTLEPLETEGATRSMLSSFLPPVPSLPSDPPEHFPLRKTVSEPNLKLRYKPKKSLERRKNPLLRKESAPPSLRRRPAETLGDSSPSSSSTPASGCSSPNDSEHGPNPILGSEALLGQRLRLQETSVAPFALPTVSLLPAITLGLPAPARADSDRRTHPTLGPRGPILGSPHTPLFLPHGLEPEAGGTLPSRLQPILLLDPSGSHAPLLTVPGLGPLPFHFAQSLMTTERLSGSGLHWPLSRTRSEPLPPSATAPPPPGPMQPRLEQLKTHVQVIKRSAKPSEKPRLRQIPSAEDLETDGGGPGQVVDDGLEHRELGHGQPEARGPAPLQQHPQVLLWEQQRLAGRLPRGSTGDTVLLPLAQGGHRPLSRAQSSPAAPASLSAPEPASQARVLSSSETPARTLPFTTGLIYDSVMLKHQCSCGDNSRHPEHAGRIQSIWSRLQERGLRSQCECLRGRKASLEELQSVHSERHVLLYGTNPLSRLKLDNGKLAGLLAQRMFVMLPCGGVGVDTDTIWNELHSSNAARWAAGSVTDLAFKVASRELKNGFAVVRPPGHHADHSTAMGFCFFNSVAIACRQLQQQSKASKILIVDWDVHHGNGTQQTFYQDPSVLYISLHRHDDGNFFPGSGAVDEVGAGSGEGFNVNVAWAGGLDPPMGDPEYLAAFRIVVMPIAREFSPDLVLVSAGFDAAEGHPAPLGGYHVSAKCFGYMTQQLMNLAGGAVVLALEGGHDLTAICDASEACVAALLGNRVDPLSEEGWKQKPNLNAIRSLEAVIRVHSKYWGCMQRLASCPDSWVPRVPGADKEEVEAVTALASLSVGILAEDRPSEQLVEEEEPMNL
Sequence of Histone deacetylase 2 (Q92769 whole entry): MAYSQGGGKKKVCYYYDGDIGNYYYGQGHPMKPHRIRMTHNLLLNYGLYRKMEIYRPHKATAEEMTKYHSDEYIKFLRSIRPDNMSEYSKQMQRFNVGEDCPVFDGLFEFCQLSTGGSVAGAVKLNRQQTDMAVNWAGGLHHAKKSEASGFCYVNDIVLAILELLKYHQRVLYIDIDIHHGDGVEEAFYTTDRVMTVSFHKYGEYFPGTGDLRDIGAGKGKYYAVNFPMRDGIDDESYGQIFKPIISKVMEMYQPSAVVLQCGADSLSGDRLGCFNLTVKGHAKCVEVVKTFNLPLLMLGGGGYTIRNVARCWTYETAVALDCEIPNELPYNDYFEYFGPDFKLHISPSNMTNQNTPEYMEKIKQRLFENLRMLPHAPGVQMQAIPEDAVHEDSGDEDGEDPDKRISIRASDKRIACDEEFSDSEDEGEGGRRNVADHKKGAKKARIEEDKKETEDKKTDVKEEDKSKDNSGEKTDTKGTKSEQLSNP

Compound: COc1ccc(OC)c(/C=C2\Oc3cc(O)cc(O)c3C2=O)c1
- pEC50 (Leishmania major [4]): 3.72
- fold change (FC) (Leishmania major [5]): 6
- pEC50 (THP-1): 3.46

Compound: COc1cc(OC)c2c(c1)O/C(=C\c1ccccc1OC)C2=O
- selectivity ratio [6]: 57.5
- pEC50 (Leishmania infantum): 5.89

Compound: COc1ccc(/C=C2\Oc3c(ccc(OC(C)=O)c3COC(C)=O)C2=O)cc1OC
- pIC50 (PC-3): 6.13

Compound: COc1cc2c(cc1OC)C(=O)/C(=C/c1cc[n+](Cc3ccccc3F)cc1)O2
- pIC50 [7]: 5.79

Compound: C=CCn1c(=O)c(/C=C2\Oc3cc(O)cc(O)c3C2=O)cc2cc(C)ccc21
- MIC (Pseudomonas aeruginosa): 33 µM (≈ 12.4 µg/mL)

Compound: COc1cc2c(cc1OC)C(=O)/C(=C/c1ccc(OCCN3CCCCC3)cc1)C2
- pIC50 (Acetylcholinesterase [8]): 6.52

Compound: COc1ccc(NC(=O)Oc2cccc(/C=C3\Cc4cc(OC)c(OC)cc4C3=O)c2)cc1
- pIC50 (Acetylcholinesterase [11]): 4.68
- Ratio IC50 [12]: 70
- pIC50 [13]: 6.51

Compound: O=C1/C(=C/c2cn(CC3CCCCC3)c3ccccc23)Oc2cc(O)cc(O)c21
- pIC50 (Toxoplasma gondii): 5.00

Continued, in another order:

- pKi (Histone deacetylase 4): 6.10
- pKi (Histone deacetylase 2): 5.78
- pKi (Histone deacetylase 7): 5.78
- inhibition [3]: 62%
- pKi (Histone deacetylase 8): 5.78
Compound: O=C1/C(=C/c2ccc(O)c(O)c2)Oc2cc(O)cc(O)c21 [AUREUSIDIN]
- pEC50 (HT-22 [1]): 4.92
- viability at 40 µM (HT-22 [2]): 97%

- IC50 (Casein kinase 2): 3.3 nM
Compound: O=C1/C(=C/c2ccc(O)c(Br)c2)Oc2c(Br)cccc21

- pIC50 (U-251): 5.60
Compound: O=C1/C(=C(\O)c2ccc3ccccc3c2)Cc2ccccc21

- pKi [9]: 6.96
- pKi [10]: 6.70
Compound: O=C1/C(=C/c2c3ccccc3cc3ccccc23)Oc2ccccc21

- MIC (Bacillus subtilis): 4.4 µM (≈ 1.56 µg/mL)
- MIC (Aspergillus flavus): 18 µM (≈ 6.39 µg/mL)
- MIC (Staphylococcus aureus): 4.4 µM (≈ 1.56 µg/mL)
- MIC (Proteus vulgaris): 4.4 µM (≈ 1.56 µg/mL)
- MIC (Escherichia coli): 4.4 µM (≈ 1.56 µg/mL)
- MIC (Candida albicans): 18 µM (≈ 6.39 µg/mL)
Compound: O=C1/C(=C/c2ccc(Br)cc2)Oc2c1ccc1c2C=CCO1
